Measured values reported in patent US20020055528A1, “Artemisinin analogs having antimalarial, antiproliferative, and antitumor activities and chemoselective methods of making the same” (priority 1999, published 2002).

Experiments:
Format in all cases: cell-based
NCI-H322M = assay: NCI 60 cell line screen (SRB), Non-Small Cell Lung Cancer; conditions: for Log10GI50: PG=+50
SW-620 = assay: NCI 60 cell line screen (SRB), Colon Cancer; conditions: for Log10TGI: PG=0; for Log10GI50: PG=+50
DU-145 = assay: NCI 60 cell line screen (SRB), Prostate Cancer; conditions: for Log10TGI: PG=0
NCI-H226 = assay: NCI 60 cell line screen (SRB), Non-Small Cell Lung Cancer; conditions: for Log10TGI: PG=0
NCI/ADR-RES = assay: NCI 60 cell line screen (SRB), Breast Cancer; conditions: for Log10TGI: PG=0
A498 = assay: NCI 60 cell line screen (SRB), Renal Cancer
OVCAR-4 = assay: NCI 60 cell line screen (SRB), Ovarian Cancer
OVCAR-5 = assay: NCI 60 cell line screen (SRB), Ovarian Cancer; conditions: for Log10TGI: PG=0
KM12 = assay: NCI 60 cell line screen (SRB), Colon Cancer; conditions: for Log10TGI: PG=0
K-562 = assay: NCI 60 cell line screen (SRB), Leukemia; conditions: for Log10TGI: PG=0
SF-295 = assay: NCI 60 cell line screen (SRB), CNS Cancer
[1] = test system: MB231/ATCC (second line of the wrapped label, with values of its own); assay: NCI 60 cell line screen (SRB), Breast Cancer
SF-268 = assay: NCI 60 cell line screen (SRB), CNS Cancer
SK-OV-3 = assay: NCI 60 cell line screen (SRB), Ovarian Cancer
NCI-H23 = assay: NCI 60 cell line screen (SRB), Non-Small Cell Lung Cancer
SK-MEL-28 = assay: NCI 60 cell line screen (SRB), Melanoma
HCC-2998 = assay: NCI 60 cell line screen (SRB), Colon Cancer
EKVX = assay: NCI 60 cell line screen (SRB), Non-Small Cell Lung Cancer
[2] = Table IV (LC50, PG=−50), OVCAR−4

Molecule `CC(=O)O[C@H]1C(=O)[C@@]2(C)[C@H]([C@H](OC(=O)c3ccccc3)[C@]3(O)C[C@H](OC(=O)[C@H](O)[C@@H](NC(=O)c4ccccc4)c4ccccc4)C(C)=C1C3(C)C)[C@]1(OC(C)=O)CO[C@@H]1C[C@@H]2O` [Paclitaxel, paclitaxel, reference compound] has a Log10GI50 (NCI-H322M) of −10.12 log10M, a Log10TGI (SW-620) greater than −4.00 log10M and a Log10GI50 (SW-620) of −11.60 log10M. It also gave a Log10TGI (DU-145) greater than −4.00 log10M, a Log10GI50 (DU-145; PG=+50) of −9.38 log10M and a Log10GI50 (DU-145; Table IV (LC50, PG=−50)) greater than −4.00 log10M. It also gave a Log10TGI (NCI-H226) of −4.80 log10M, a Log10GI50 (NCI-H226; Table IV (LC50, PG=−50)) of −4.10 log10M and a Log10TGI (NCI/ADR-RES) greater than −4.00 log10M. It also gave a Log10GI50 (NCI/ADR-RES; PG=+50) of −8.48 log10M, a Log10GI50 (NCI/ADR-RES; Table IV (LC50, PG=−50)) greater than −4.00 log10M and a Log10GI50 (A498; PG=+50) of −7.14 log10M. For the same molecule, the Log10GI50 (A498; Table IV (LC50, PG=−50)) was −4.13 log10M, the Log10GI50 (OVCAR-4; OVCAR-4, PG=+50) was −5.00 log10M and the Log10TGI (OVCAR-4; OVCAR−4, PG=0) was −4.19 log10M. For the same molecule, the Log10GI50 (OVCAR-4; [2]) was greater than −4.00 log10M, the Log10TGI (OVCAR-5) was −4.92 log10M and the Log10GI50 (OVCAR-5; PG=+50) was −9.38 log10M. It also gave a Log10GI50 (OVCAR-5; Table IV (LC50, PG=−50)) greater than −4.00 log10M, a Log10TGI (KM12) of −4.36 log10M and a Log10GI50 (KM12; PG=+50) of −11.43 log10M. For the same molecule, the Log10GI50 (KM12; Table IV (LC50, PG=−50)) was greater than −4.00 log10M, the Log10TGI (K-562) was −10.83 log10M and the Log10GI50 (K-562; PG=+50) was −10.83 log10M. The Log10GI50 (K-562; Table IV (LC50, PG=−50)) was greater than −4.00 log10M.
Work on `CC1=C(C=Cc2cccc(C=CC3=C(C)C4CCC(C)C5CCC6(C)OOC45C(O3)O6)c2)OC2OC3(C)CCC4C(C)CCC1C24OO3` (stereo not drawn) [VII-f] yielded a Log10TGI (NCI-H322M; PG=0) of −4.39 log10M, a Log10GI50 (NCI-H322M) of −6.05 log10M and a Log10TGI (SW-620) greater than −4.00 log10M. For the same molecule, the Log10GI50 (SW-620) was −5.90 log10M, the Log10TGI (DU-145) was greater than −4.00 log10M and the Log10GI50 (DU-145; PG=+50) was −5.16 log10M. It also gave a Log10GI50 (DU-145; Table IV (LC50, PG=−50)) greater than −4.00 log10M, a Log10TGI (NCI-H226) greater than −4.00 log10M and a Log10GI50 (NCI-H226; PG=+50) of −4.61 log10M. For the same molecule, the Log10GI50 (NCI-H226; Table IV (LC50, PG=−50)) was greater than −4.00 log10M, the Log10TGI (SF-295; PG=0) was greater than −4.00 log10M and the Log10GI50 (SF-295; PG=+50) was −5.25 log10M. It also gave a Log10TGI (NCI/ADR-RES) of −4.34 log10M, a Log10GI50 (NCI/ADR-RES; PG=+50) of −5.29 log10M and a Log10GI50 (NCI/ADR-RES; Table IV (LC50, PG=−50)) greater than −4.00 log10M. The Log10GI50 ([1]; PG=+50) was −6.13 log10M, the Log10GI50 ([1]; Table IV (LC50, PG=−50)) was greater than −4.00 log10M and the Log10TGI (SF-268; PG=0) was greater than −4.00 log10M. For the same molecule, the Log10GI50 (SF-268; PG=+50) was −5.70 log10M, the Log10TGI (SK-OV-3; PG=0) was greater than −4.00 log10M and the Log10GI50 (SK-OV-3; PG=+50) was −4.52 log10M. For the same molecule, the Log10GI50 (SK-OV-3; Table IV (LC50, PG=−50)) was greater than −4.00 log10M, the Log10TGI (NCI-H23; PG=0) was −4.36 log10M and the “log10 GI50 or LC50 (see conditions)” value (NCI-H23; PG=+50) was −5.32 log10M. The “log10 GI50 or LC50 (see conditions)” value (NCI-H23; Table IV (LC50, PG=−50)) was greater than −4.00 log10M, the Log10TGI (A498; PG=0) was −4.37 log10M and the Log10GI50 (A498; PG=+50) was −4.79 log10M. For the same molecule, the Log10GI50 (A498; Table IV (LC50, PG=−50)) was greater than −4.00 log10M, the Log10TGI (SK-MEL-28; PG=0) was greater than −4.00 log10M and the Log10GI50 (SK-MEL-28; PG=+50) was −4.00 log10M. It also gave a Log10GI50 (SK-MEL-28; Table IV (LC50, PG=−50)) greater than −4.00 log10M, a Log10GI50 (OVCAR-4; OVCAR-4, PG=+50) of −5.93 log10M and a Log10GI50 (OVCAR-4; [2]) greater than −4.00 log10M. It also gave a Log10TGI (OVCAR-5) greater than −4.00 log10M, a Log10GI50 (OVCAR-5; PG=+50) of −6.04 log10M and a Log10GI50 (OVCAR-5; Table IV (LC50, PG=−50)) greater than −4.00 log10M. The Log10TGI (HCC-2998; PG=0) was greater than −4.00 log10M, the Log10GI50 (HCC-2998; PG=+50) was −5.59 log10M and the Log10TGI (KM12) was greater than −4.00 log10M. It also gave a Log10GI50 (KM12; PG=+50) of −6.23 log10M, a Log10GI50 (KM12; Table IV (LC50, PG=−50)) greater than −4.00 log10M and a Log10TGI (K-562) of −6.18 log10M. The Log10GI50 (K-562; PG=+50) was −6.18 log10M, the Log10GI50 (K-562; Table IV (LC50, PG=−50)) was greater than −4.00 log10M and the Log10TGI (EKVX; PG=0) was −4.58 log10M. For the same molecule, the Log10GI50 (EKVX; PG=+50) was −6.21 log10M and the Log10GI50 (EKVX; Table IV (LC50, PG=−50)) was greater than −4.00 log10M.
